Measured values taken from PubChem BioAssay AID504843 (Broad Institute, 2011).
The source made the active and inactive calls. The rule behind the calls is not given here.

System: bacterial growth, BacTiter-Glo ATP luminescence
Test: antibacterial activity by ATP level – BacTiter-Glo luminescence, cherry-picked samples, counter-screen, dose response (AID 504843);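 note: growth measured after 8 h incubation at 30 °C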

## CO[C@H]1C=CO[C@@]2(C)Oc3c(C)c(O)c4c(O)c(c(C=NN5CCN(C)CC5)c(O)c4c3C2=O)NC(=O)C(C)=CC=C[C@H](C)[C@H](O)[C@@H](C)[C@@H](O)[C@@H](C)[C@H](OC(C)=O)[C@@H]1C
  AC50: > 15 µM (inactive)
